Assay results: ChEMBL document CHEMBL5303573, “Mapping human microbiome drug metabolism by gut bacteria and their genes” (Nature, 2019)

Key:
[1] = bacteroides intestinalis, 12 h, 2 µM
Description: The drug is tested on Bacteroides intestinalis strain: DSM17393 for biotransformation. The drug concentrations were measured before and after a 12-h incubation by liquid-chromatography-coupled mass spectrometry (LC–MS)

[2] = The drug is tested on Dorea formicigenerans strain: ATCC27755 for biotransformation. The drug concentrations were measured before and after a 12-h incubation by liquid-chromatography-coupled mass spectrometry (LC–MS); conditions: 2 µM
[3] = The drug is tested on Blautia luti strain: DSM14534 for biotransformation. The drug concentrations were measured before and after a 12-h incubation by liquid-chromatography-coupled mass spectrometry (LC–MS); type: ADME; design: dose 2 uM, timepoint 0 vs 12 hours; conditions: 2 µM
[4] = The drug is tested on Bacteroides fragilis strain: HMW610 for biotransformation. The drug concentrations were measured before and after a 12-h incubation by liquid-chromatography-coupled mass spectrometry (LC–MS); conditions: 2 µM
[5] = The drug is tested on Clostridium symbiosum strain: ATCC14940 for biotransformation. The drug concentrations were measured before and after a 12-h incubation by liquid-chromatography-coupled mass spectrometry (LC–MS); conditions: 2 µM
[6] = segatella copri, 12 h, 2 µM
Description: The drug is tested on Prevotella copri strain: DSM18205 for biotransformation. The drug concentrations were measured before and after a 12-h incubation by liquid-chromatography-coupled mass spectrometry (LC–MS)

[7] = The drug is tested on Subdoligranulum variabile strain: DSM15176 for biotransformation. The drug concentrations were measured before and after a 12-h incubation by liquid-chromatography-coupled mass spectrometry (LC–MS); conditions: 2 µM
[8] = The drug is tested on Coprococcus comes strain: ATCC27758 for biotransformation. The drug concentrations were measured before and after a 12-h incubation by liquid-chromatography-coupled mass spectrometry (LC–MS); type: ADME; design: dose 2 uM, timepoint 0 vs 12 hours; conditions: 2 µM
[9] = The drug is tested on Bacteroides fragilis strain: HMW615 for biotransformation. The drug concentrations were measured before and after a 12-h incubation by liquid-chromatography-coupled mass spectrometry (LC–MS); conditions: 2 µM
[10] = The drug is tested on Bacteroides cellulosilyticus strain: DSM14838 for biotransformation. The drug concentrations were measured before and after a 12-h incubation by liquid-chromatography-coupled mass spectrometry (LC–MS); conditions: 2 µM
[11] = The drug is tested on Enterobacter cancerogenus strain: ATCC35316 for biotransformation. The drug concentrations were measured before and after a 12-h incubation by liquid-chromatography-coupled mass spectrometry (LC–MS); conditions: 2 µM
[12] = The drug is tested on Bacteroides caccae strain: ATCC43185 for biotransformation. The drug concentrations were measured before and after a 12-h incubation by liquid-chromatography-coupled mass spectrometry (LC–MS); conditions: 2 µM
[13] = bacteroides fragilis, 12 h, 2 µM
Description: The drug is tested on Bacteroides fragilis strain: DS-208 for biotransformation. The drug concentrations were measured before and after a 12-h incubation by liquid-chromatography-coupled mass spectrometry (LC–MS)

[14] = akkermansia muciniphila, 12 h, 2 µM
Description: The drug is tested on Akkermansia muciniphila strain: ATCC BAA-835 for biotransformation. The drug concentrations were measured before and after a 12-h incubation by liquid-chromatography-coupled mass spectrometry (LC–MS)

[15] = The drug is tested on Bacteroides uniformis strain: ATCC8492 for biotransformation. The drug concentrations were measured before and after a 12-h incubation by liquid-chromatography-coupled mass spectrometry (LC–MS); conditions: 2 µM
[16] = The drug is tested on Odoribacter splanchnicus strain: fecal isolate for biotransformation. The drug concentrations were measured before and after a 12-h incubation by liquid-chromatography-coupled mass spectrometry (LC–MS); conditions: 2 µM
[17] = anaerostipes sp., 12 h, 2 µM
Description: The drug is tested on Anaerostipes sp. strain: fecal isolate for biotransformation. The drug concentrations were measured before and after a 12-h incubation by liquid-chromatography-coupled mass spectrometry (LC–MS)

[18] = The drug is tested on Bacteroides xylanisolvens strain: DSM18836 for biotransformation. The drug concentrations were measured before and after a 12-h incubation by liquid-chromatography-coupled mass spectrometry (LC–MS); conditions: 2 µM
[19] = The drug is tested on Bacteroides vulgatus strain: ATCC8482 for biotransformation. The drug concentrations were measured before and after a 12-h incubation by liquid-chromatography-coupled mass spectrometry (LC–MS); conditions: phocaeicola vulgatus, 2 µM

Structure (SMILES)	Bacterial Biotransformation [1]	Bacterial Biotransformation [2]	Bacterial Biotransformation [3]	Bacterial Biotransformation [4]	Bacterial Biotransformation [5]	Bacterial Biotransformation [6]	Bacterial Biotransformation [7]	Bacterial Biotransformation [8]	Bacterial Biotransformation [9]	Bacterial Biotransformation [10]	Bacterial Biotransformation [11]	Bacterial Biotransformation [12]	Bacterial Biotransformation [13]	Bacterial Biotransformation [14]	Bacterial Biotransformation [15]	Bacterial Biotransformation [16]	Bacterial Biotransformation [17]	Bacterial Biotransformation [18]	Bacterial Biotransformation [19]
COc1cc2nc(N3CCN(C(=O)C4COc5ccccc5O4)CC3)nc(N)c2cc1OC.CS(=O)(=O)O (stereo unspecified) [DOXAZOSIN MESYLATE]	Compound NOT metabolized	Compound NOT metabolized	Compound NOT metabolized	Compound NOT metabolized	Compound NOT metabolized	Compound metabolized	Compound NOT metabolized	Compound NOT metabolized	Compound NOT metabolized	Compound NOT metabolized	Compound NOT metabolized	Compound NOT metabolized	Compound NOT metabolized	Compound NOT metabolized	Compound metabolized	Compound NOT metabolized	–	–	–
CN(C)CCC=C1c2ccccc2COc2ccccc21 [DOXEPIN]	Compound NOT metabolized	Compound NOT metabolized	Compound NOT metabolized	Compound NOT metabolized	Compound NOT metabolized	Compound NOT metabolized	Compound NOT metabolized	Compound NOT metabolized	Compound NOT metabolized	Compound NOT metabolized	–	Compound NOT metabolized	Compound NOT metabolized	–	Compound NOT metabolized	Compound NOT metabolized	Compound NOT metabolized	–	–
COC(=O)Nc1nc2ccc(C(=O)c3ccccc3)cc2[nH]1 [MEBENDAZOLE]	Compound NOT metabolized	Compound NOT metabolized	–	Compound metabolized	Compound NOT metabolized	–	Compound NOT metabolized	Compound NOT metabolized	–	Compound NOT metabolized	Compound NOT metabolized	Compound NOT metabolized	Compound metabolized	Compound NOT metabolized	Compound metabolized	Compound metabolized	Compound NOT metabolized	Compound metabolized	Compound metabolized
Cc1ccnc2c1NC(=O)c1cccnc1N2C1CC1 [NEVIRAPINE]	Compound NOT metabolized	Compound NOT metabolized	Compound NOT metabolized	Compound NOT metabolized	Compound NOT metabolized	Compound NOT metabolized	Compound NOT metabolized	Compound NOT metabolized	Compound NOT metabolized	Compound NOT metabolized	Compound NOT metabolized	Compound NOT metabolized	Compound metabolized	Compound NOT metabolized	–	–	Compound NOT metabolized	Compound NOT metabolized	Compound NOT metabolized
CO[C@]12C[C@@H](COC(=O)c3cncc(Br)c3)CN(C)[C@@H]1Cc1cn(C)c3cccc2c13 [NICERGOLINE]	Compound NOT metabolized	Compound NOT metabolized	Compound NOT metabolized	–	Compound NOT metabolized	Compound NOT metabolized	Compound NOT metabolized	–	Compound NOT metabolized	Compound metabolized	Compound NOT metabolized	Compound NOT metabolized	Compound NOT metabolized	Compound NOT metabolized	Compound metabolized	Compound NOT metabolized	Compound NOT metabolized	Compound NOT metabolized	Compound metabolized
CC(C)N(CCC(C(N)=O)(c1ccccc1)c1ccccn1)C(C)C.O=P(O)(O)O (stereo unspecified) [DISOPYRAMIDE PHOSPHATE]	Compound NOT metabolized	Compound NOT metabolized	Compound NOT metabolized	Compound NOT metabolized	Compound NOT metabolized	Compound NOT metabolized	Compound NOT metabolized	Compound NOT metabolized	Compound NOT metabolized	Compound NOT metabolized	Compound NOT metabolized	Compound NOT metabolized	Compound NOT metabolized	Compound NOT metabolized	–	Compound NOT metabolized	Compound NOT metabolized	Compound NOT metabolized	–
CCN(CC)CC#CCOC(=O)C(O)(c1ccccc1)C1CCCCC1.Cl (stereo unspecified) [OXYBUTYNIN CHLORIDE]	Compound NOT metabolized	Compound metabolized	Compound metabolized	Compound metabolized	Compound metabolized	–	Compound NOT metabolized	–	–	Compound NOT metabolized	Compound NOT metabolized	Compound NOT metabolized	Compound NOT metabolized	–	Compound metabolized	Compound metabolized	Compound NOT metabolized	Compound metabolized	Compound metabolized
CCN(CC)CCNC(=O)c1cc(Cl)c(N)cc1OC [METOCLOPRAMIDE]	Compound NOT metabolized	Compound NOT metabolized	Compound NOT metabolized	Compound NOT metabolized	Compound NOT metabolized	Compound NOT metabolized	Compound NOT metabolized	Compound NOT metabolized	Compound NOT metabolized	Compound NOT metabolized	Compound NOT metabolized	Compound NOT metabolized	Compound NOT metabolized	–	Compound NOT metabolized	Compound NOT metabolized	Compound NOT metabolized	Compound NOT metabolized	Compound NOT metabolized
